Measurements as given in patent US20230303631A1, “METHOD FOR INDUCING IMMUNITY TO SARS-CoV-2” (RIKEN, priority 2020, published 2023).
Where no end group is shown, it is not given here.

How the values were obtained:
[1] = tested on: CD8 single-positive T cells; assay: Intracellular cytokine staining (IFN-γ, TNF-α) after restimulation with individual 15mer peptides; assay type: cell-based, human; settings: for INF-γ production by CD8 single-positive T cells / TNF-α production by CD8 single-positive T cells: PBMCs of 4 healthy volunteers with HLA-A2402, cultured with 15mer mixture (each 10 μg/ml) and IL-2, restimulated with individual 15mer for 16 hours, FIG. 3
Description: Culture was carried out for 21 days in presence of IL-2 and a peptide and stimulation with a peptide was carried out in the presence of brefeldin and monensin in the same manner as in Example 1, and then, INF-γ production was examined. More specifically, to PBMCs of 4 healthy volunteers (HV) with HLA-A2402, a mixture of 15mer peptides was added such that the concentration of each peptide became 10 μg/ml. The PBMCs were cultured in the presence of IL-2. As a result, T cells having a binding affinity to a peptide in contact with them survive. Autogenous PBMCs were pulsed with a mixture of 15mer peptides every week, irradiated with 40 Gy and added to the above culture as a feeder. On Day 14 and 21, the mixture of 15mer peptides was further added. Thereafter, the culture obtained was pulsed with individual 15mer peptides and cultured for 16 hours in the presence of brefeldin and monensin to induce INF-γ production. Intracellular cytokine staining (anti-IFN-g-APC, anti-TNF-α-PE) were performed and peptide-specific cytokine producing CD8T cells were analyzed.

[2] = tested on: CD8 single-positive T cells; settings: PBMCs of healthy donors HD1 to HD5, peptide 10 μM, 21 days with IL-2, then 16 hours with peptide, brefeldin A and monensin; FIG. 1

Sequence: GKYEQYIKWPWYIWL [15mer-2]
- INF-γ production by CD8 single-positive T cells [1]: increased
- TNF-α production by CD8 single-positive T cells [1]: increased

Sequence: QYIKWPWYI [pep #4, QYIKWPWYI]
- induction of IFN-γ production in CD8 single-positive T cells (cytotoxic T cells) [2]: strong induction of IFN-γ production
- antigen-specific cytotoxic action of CTLs on peptide-pulsed A24-C1R cells (A24-C1R cells): exhibited antigen-specific cytotoxic action

Sequence: QYIKWPWYIWLGFIA [15mer-3]
- INF-γ production by CD8 single-positive T cells [1]: increased
- TNF-α production by CD8 single-positive T cells [1]: increased
- ratio of INF-γ-positive, TNF-α-positive CD8T cells (stimulation of T cells) ([1]; comparison among the 15mer peptides, FIG. 4): stimulated T cells most satisfactorily

Sequence: WPWYIWLGFIAGLIA [15mer-4]
- INF-γ production by CD8 single-positive T cells [1]: increased
- TNF-α production by CD8 single-positive T cells [1]: increased
